Target: T1, HiBit-labeled full length SHIP1 protein (Homo sapiens, UniProt Q92835)
T1 construct: thermal stability of a HiBit-labeled full length SHIP1 protein in intact cells; expressed in transfected cells; host or cells: HMC3 (stably transfected)
T1 sequence (Q92835 1-1189): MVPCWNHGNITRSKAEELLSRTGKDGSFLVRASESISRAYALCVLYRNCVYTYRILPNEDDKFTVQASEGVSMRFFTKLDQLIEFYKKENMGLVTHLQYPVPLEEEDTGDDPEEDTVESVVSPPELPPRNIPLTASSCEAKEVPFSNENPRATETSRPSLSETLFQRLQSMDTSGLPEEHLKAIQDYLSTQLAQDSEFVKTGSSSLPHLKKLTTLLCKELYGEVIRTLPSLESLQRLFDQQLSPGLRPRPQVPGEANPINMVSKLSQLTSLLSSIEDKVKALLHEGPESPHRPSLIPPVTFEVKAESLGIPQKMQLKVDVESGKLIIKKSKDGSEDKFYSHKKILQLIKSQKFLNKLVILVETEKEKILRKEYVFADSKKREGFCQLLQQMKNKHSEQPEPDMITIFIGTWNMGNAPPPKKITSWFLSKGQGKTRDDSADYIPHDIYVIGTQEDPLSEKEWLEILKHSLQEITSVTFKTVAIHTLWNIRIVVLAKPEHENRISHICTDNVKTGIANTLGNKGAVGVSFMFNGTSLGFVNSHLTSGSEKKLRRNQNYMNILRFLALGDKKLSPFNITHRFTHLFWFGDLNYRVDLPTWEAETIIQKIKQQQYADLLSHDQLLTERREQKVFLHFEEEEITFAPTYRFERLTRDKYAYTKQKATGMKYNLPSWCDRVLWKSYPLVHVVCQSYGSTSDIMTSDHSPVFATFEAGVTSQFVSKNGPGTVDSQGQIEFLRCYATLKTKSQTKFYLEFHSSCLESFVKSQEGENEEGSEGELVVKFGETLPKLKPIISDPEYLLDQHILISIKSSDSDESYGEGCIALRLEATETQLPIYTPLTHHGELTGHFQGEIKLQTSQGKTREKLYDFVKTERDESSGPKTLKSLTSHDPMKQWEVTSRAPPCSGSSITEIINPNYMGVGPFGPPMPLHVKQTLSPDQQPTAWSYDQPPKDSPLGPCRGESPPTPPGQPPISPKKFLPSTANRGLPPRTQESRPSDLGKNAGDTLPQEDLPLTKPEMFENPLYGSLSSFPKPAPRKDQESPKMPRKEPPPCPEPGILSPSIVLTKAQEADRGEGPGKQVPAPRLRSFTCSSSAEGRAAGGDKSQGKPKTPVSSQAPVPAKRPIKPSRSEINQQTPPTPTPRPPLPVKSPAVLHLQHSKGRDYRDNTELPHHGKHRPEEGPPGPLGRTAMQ
Assay: Cellular thermal shift assay (SplitLuc CETSA), thermal shift format
Format: cell-based
Parameters: key: Y = ΔTm difference of 40 μM compound treated cells from control is Tm > 3SD; N: otherwise negative
Details: 40 μM compound for 60 min, HMC3/HiBit-INPP5D cells, 38-52° C. gradient; target engagement positive/negative
Experimental: Cellular thermal shift assay (CETSA). […] This assay was run in the following two formats with HMC3/HiBit-INPP5D stably transfected cells.
1. Thermal shift: cells were treated with 40 μM compound for 60 min, then heated with a temperature gradient covering 38-52° C. for 3 min before luminescence detection. Mean and standard deviation of control Tm were determined to generate a “Mean+3SD” ΔTm, which was used as threshold to determine a significant ΔTm of compound from control. When the difference of ΔTm of compound treated cells from control Tm>3SD, the compound was considered positive for target engagement, otherwise negative. SD=average standard deviation.
See Martinez et al. (2018) Sci Rep 8: p. 9472; Oh-Hashi et al. (2017) Biochem Biophys Rep 12: pp. 40-45. This assay was run in the following two formats with HMC3/HiBit-INPP5D stably transfected cells.
Thermal shift: cells were treated with 40 μM compound for 60 min, then heated with a temperature gradient covering 38-52° C. for 3 min before luminescence detection. Mean and standard deviation of control Tm were determined to generate a “Mean+3SD” ΔTm, which was used as threshold to determine a significant ΔTm of compound from control. When the difference of ΔTm of compound treated cells from control Tm>3SD, the compound was considered positive for target engagement, otherwise negative. SD=average standard deviation.

| SMILES | CETSA SP |
| --- | --- |
| Clc1ccccc1COc1cncc(-n2cc(C3CCNCC3)cn2)c1 [Compound 28, 3-((2-chlorobenzyl)oxy)-5-(4-(piperidin-4-yl)-1H-pyrazol-1-yl)pyridine] | Y |
| Clc1ccccc1COc1cncc(-n2ccc(C3CCNCC3)n2)c1 [Compound 27, 3-((2-chlorobenzyl)oxy)-5-(3-(piperidin-4-yl)-1H-pyrazol-1-yl)pyridine] | Y |
| Cl.Clc1ccc(COc2cncc(-c3cnn(C4CCNCC4)c3)c2)c(Cl)c1 [Compound 10, 3-((2,4-dichlorobenzyl)oxy)-5-(1-(piperidin-4-yl)-1H-pyrazol-4-yl)pyridine hydrochloride] | Y |
| Clc1ccccc1COc1cncc(-c2ccn(C3CCNCC3)n2)c1 [Compound 26, 3-((2-chlorobenzyl)oxy)-5-(1-(piperidin-4-yl)-1H-pyrazol-3-yl)pyridine] | Y |
| C[C@H](Oc1cncc(-c2cnn(C3CCNCC3)c2)c1)c1ccccc1Cl [Compound 21, (S)-3-(1-(2-chlorophenyl)ethoxy)-5-(1-(piperidin-4-yl)-1H-pyrazol-4-yl)pyridine] | Y |
| C[C@@H](Oc1cncc(-c2cnn(C3CCNCC3)c2)c1)c1ccccc1Cl [Compound 22, (R)-3-(1-(2-chlorophenyl)ethoxy)-5-(1-(piperidin-4-yl)-1H-pyrazol-4-yl)pyridine] | Y |
| Clc1ccccc1COc1cccc(-c2cnn(C3CCNCC3)c2)c1 [Compound 29, 4-(4-(3-((2-chlorobenzyl)oxy)phenyl)-1H-pyrazol-1-yl)piperidine] | N |
| C[C@@H](Oc1cncc(-c2cnn(C3CCNCC3)c2)c1)c1ccc(Cl)cc1 [Compound 23, (R)-3-(1-(4-chlorophenyl)ethoxy)-5-(1-(piperidin-4-yl)-1H-pyrazol-4-yl)pyridine] | Y |

Other lines, results leading:

| CETSA SP | SMILES |
| --- | --- |
| Y | Cl.Clc1ccccc1COc1cncc(-c2cnn(C3CCNCC3)c2)c1 [Compound 9, 3-((2-chlorobenzyl)oxy)-5-(1-(piperidin-4-yl)-1H-pyrazol-4-yl)pyridine hydrochloride] |
| N | CC(C)(C)CC(=O)N1CCC(n2cc(-c3cncc(OCc4ccccc4Cl)c3)cn2)CC1 [Compound 16, 1-(4-(4-(5-((2-chlorobenzyl)oxy)pyridin-3-yl)-1H-pyrazol-1-yl)piperidin-1-yl)-3,3-dimethylbutan-1-one] |
| N | CC(C)(C)CCN1CCC(n2cc(-c3cncc(OCc4ccccc4Cl)c3)cn2)CC1 [Compound 15, 3-((2-chlorobenzyl)oxy)-5-(1-(1-(3,3-dimethylbutyl)piperidin-4-yl)-1H-pyrazol-4-yl)pyridine] |
| Y | Cc1ccccc1COc1cncc(-c2cnn(C3CCNCC3)c2)c1 [Compound 25, 3-[(2-Methylphenyl)methoxy]-5-[1-(piperidin-4-yl)-1H-pyrazol-4-yl]pyridine] |
| N | CC(C)(C)OC(=O)N1CCC(n2cc(-c3cncc(OCc4ccccc4Cl)c3)cn2)CC1 [Compound 1, tert-butyl 4-(4-{5-[(2-chlorophenyl)methoxy]pyridin-3-yl}-1H-pyrazol-1-yl)piperidine-1-carboxylate] |
| N | CC(C)(C)OC(=O)N1CCC(n2cc(-c3cncc(OCc4ccccc4)c3)cn2)CC1 [Compound 4, tert-butyl 4-(4-(5-(benzyloxy)pyridin-3-yl)-1H-pyrazol-1-yl)piperidine-1-carboxylate] |
| N | Cc1ccccc1COc1cncc(-c2cnn(C3CCN(C(=O)OC(C)(C)C)CC3)c2)c1 [Compound 3, tert-butyl 4-(4-(5-((2-methylbenzyl)oxy)pyridin-3-yl)-1H-pyrazol-1-yl)piperidine-1-carboxylate] |
| N | CC(C)(C)OC(=O)N1CCC(n2cc(-c3cncc(OCc4ccccc4F)c3)cn2)CC1 [Compound 2, tert-butyl 4-(4-(5-((2-fluorobenzyl)oxy)pyridin-3-yl)-1H-pyrazol-1-yl)piperidine-1-carboxylate] |
| N | CC(C)(C)OC(=O)N1CCC(n2cc(-c3cncc(OCc4c(Cl)cccc4Cl)c3)cn2)CC1 [Compound 5, tert-butyl 4-(4-(5-((2,6-dichlorobenzyl)oxy)pyridin-3-yl)-1H-pyrazol-1-yl)piperidine-1-carboxylate] |
| Y* | CC(C)(C)OC(=O)N1CCC(n2cc(-c3cncc(OCc4ccc(Br)cc4)c3)cn2)CC1 [Compound 7, tert-butyl 4-(4-(5-((4-bromobenzyl)oxy)pyridin-3-yl)-1H-pyrazol-1-yl)piperidine-1-carboxylate] |

Source: patent publication US20260242352A1, “INHIBITION OF SHIP1 AS A THERAPEUTIC STRATEGY FOR THE TREATMENT OF ALZHEIMER'S DISEASE” (The Trustees of Indiana University, priority 2022, published 2026)
